Measurements taken from patent US8853221B2, “Compounds of estrogen-related receptor modulators and the uses thereof” (Guangzhou Institute of Biomedicine & Health, Chinese …, priority 2008, dated 2014).

Experiments:
GAL-hERRα = molecular target: T1, GAL-hERRα (Homo sapiens, UniProt P11474); experiment: GAL4-ERRα ligand binding domain luciferase reporter activation assay in 293 FT cells co-transfected with CMV-PGC-1α; format: cell-based; conditions: in the presence of CMV-PGC-1α, approximately 24 hours, increasing concentrations (FIG. 1)
T1 construct: expressed in transfected cells; host or cells: 293 FT cells
T1 sequence (P11474 193-421 limits assumed): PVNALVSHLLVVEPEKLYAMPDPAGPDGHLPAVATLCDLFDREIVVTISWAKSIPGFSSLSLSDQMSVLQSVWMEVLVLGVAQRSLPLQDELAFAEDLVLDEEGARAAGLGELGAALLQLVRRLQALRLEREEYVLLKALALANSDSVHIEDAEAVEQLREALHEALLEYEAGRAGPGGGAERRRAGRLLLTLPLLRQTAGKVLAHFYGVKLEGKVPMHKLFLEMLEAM
From the text: To test the effect of the compounds on ERR and other nuclear hormone receptors, 293 FT cells were transiently transfected with expression vectors for the receptors along with appropriate reporter constructs according to methods known in the art. Suitable reporter gene constructs are well known to skilled workers in the fields of biochemistry and molecular biology. Other vectors known in the art can be used in the methods of the present invention. GAL4 fusions containing receptor ligand binding domain fragments were constructed by fusing human ERRα, human ERRβ and murine ERRγ ligand binding domain sequences to the C-terminal end of the yeast GAL4 DNA binding domain (amino acids 1-147 accession X85976) to form the expression vectors GAL-hERRα, GAL-L-hERRβ and Gal-mERRγ, respectively. pGAL is a control containing the yeast GAL4 DNA binding domain without receptor sequences. CMV-PGC-1α contains and expressed the PGC-1α coding sequences derived from PGC-1α (accession NM--008904). 293 FT cells for the activation assays were grown in Dulbecco's modified Eagle's medium supplemented with 10% resin charcoal-stripped fetal bovine serum at 37° C. in 5% CO2. One day prior to transfection, cells were plated to 50-80% confluence using phenol red free DMEM-FBS. The cells were transiently transfected by lipofection but other methods of transfection of DNA into cells can be utilized without deviating from the spirit of the invention. Luciferase reporter construct UASgx4-TK-Luc and cytomegalovirus-driven expression vector p-GAL, GAL-hERRα, GAL-L-hERRβ or Gal-mERRγ were added with CMV-PGC-1α. The cells were treated for approximately 24 hours with phenol red free DMEM-FBS containing 0.01% DMSO (control) or 0.01% DMSO with increasing concentrations of DK compounds. […] (FIG. 1).

[1] = system: PGC1α-promoter reporter gene driven by ERRα; experiment: PGC1α-promoter luciferase reporter gene assay driven by ERRα in HeLa cells; format: cell-based, human; conditions: 10 uM, approximately 24 hours (FIG. 2)
From the text: (§1) HeLa were transiently transfected with the pGL3-promoter (Promega) derivative pGL3-PGC1α-promoter or PDK4-Promega and expression vector for ERRα. The Renilla-Luciferase pRL-CMV Vector (Promega) was included as a control for transfection efficiency. The full length human ERRα was cloned into the expression vector pCMV. The pGL3-PGC1α-promoter or PDK4-promoter was generated by cloning an insert derived from a PCR reaction using human genomic DNA as template and primers based on the 2.6 kbp upstream sequence of the PGC1α transcriptional start site.
(§2) HeLa cells for the activation assays were grown in Dulbecco's modified Eagle's medium supplemented with 10% fetal bovine serum at 37° C. in 5% CO2. One day prior to transfection, cells were plated to 50-80% confluence using DMEM-FBS. The cells were transiently transfected by lipofection but other methods of transfection of DNA into cells can be utilized without deviating from the spirit of the invention. Luciferase reporter construct pGL3-PGC1α-promoter or PDK4-promoter and cytomegalovirus-driven expression vector pCMV or pCMV-hERRα were added. The cells were treated for approximately 24 hours with DMEM-FBS containing 0.01% DMSO (control) or 0.01% DMSO with 10 uM DK45 compound.

[2] = system: PDK4-promoter reporter gene driven by ERRα; experiment: PDK4-promoter luciferase reporter gene assay driven by ERRα in HeLa cells; format: cell-based, human; conditions: 10 uM, approximately 24 hours (FIG. 2)
From the text: as §1, §2

high-fat-diet mice [3] = experiment: Oral glucose tolerance test in high-fat-diet mice; format: in vivo, C57BL/J6 mice; conditions: 5 mg/kg/day by gavage for two weeks, fasted 5 h (FIG. 3)
Procedure: (§3) Seven weeks old male C57BL/J6 mice were either fed chow diet or a high-fat-diet with 60% calories from lard for 10 weeks. Compounds were administered to animals by gavage for two weeks at different doses. Four groups of animals (n=5) were administered with either vehicle, 5 mg/kg/day rosiglitazone, or 5 mg/kg/day DK45. Animals were fasted for 5 h, and then orally fed glucose. Blood samples were withdrawn at time 0, 15, 30, 60 and 120 min. Blood glucose level was measured by monitor (Accu-chek Advantage, Roche). The changes in blood glucose level were plotted against time and the areas under the curve were calculated for the different groups.

high-fat-diet mice [4] = experiment: Non-fasting blood glucose level in high-fat-diet mice; format: in vivo, C57BL/J6 mice; conditions: 5 mg/kg/day by gavage for two weeks, non-fasting (FIG. 4)
high-fat-diet mice [5] = experiment: Insulin resistance (insulin tolerance) test in high-fat-diet mice; format: in vivo, C57BL/J6 mice; conditions: 5 mg/kg/day by gavage, fasted 5 h, insulin 0.75 IU/kg (FIG. 5)
Procedure: as §3
In addition, insullin resistance test was administered. Animals were fasted for 5 h, and then injected insulin (0.75 IU/kg). Blood samples were withdrawn at time 0, 15, 30, 60 and 120 min. Blood glucose level was measured by monitor (Accu-chek Advantage, Roche). The changes in blood glucose level were plotted against time and the areas under the curve were calculated for the different groups.
(§4) The blood insulin levels of fasting and non-fasting treatments also indicate that DK45 at 5 mg/kg/day reduced the blood insulin levels of non-fasting treatments (FIG. 6).

high-fat-diet mice [6] = experiment: Blood insulin level in high-fat-diet mice; format: in vivo, C57BL/J6 mice; conditions: 5 mg/kg/day by gavage, non-fasting (FIG. 6)
Procedure: as §3, §4

high-fat-diet mice [7] = experiment: Serum free fatty acid, cholesterol and triglyceride levels in high-fat-diet mice; format: in vivo, C57BL/J6 mice; conditions: 5 mg/kg/day
Procedure: as §3
Moreover, DK45 at 5 mg/kg/day reduced serum free fatty acid (FIG. 7), cholesterol (FIG. 8), and triglyceride levels (FIG. 9) of non-fasting treatments.

SMILES | activity of GAL-hERRα on reporter construct UASgx4-TK-Luc (GAL-hERRα) | PGC1α-promoter reporter gene driven by ERRα [1] | PDK4-promoter reporter gene driven by ERRα [2] | area under the curve of the oral glucose tolerance test (high-fat-diet mice [3]) | blood glucose levels, non-fasting (high-fat-diet mice [4]) | area under the curve of the insulin resistance test (high-fat-diet mice [5]) | blood insulin levels of non-fasting treatments (high-fat-diet mice [6]) | serum free fatty acid (high-fat-diet mice [7]; non-fasting (FIG. 7)) | serum cholesterol (high-fat-diet mice [7]; non-fasting (FIG. 8)) | serum triglyceride levels (high-fat-diet mice [7]; non-fasting (FIG. 9))
COc1ccn2c(=O)cc(-c3ccccc3)nc2c1 [DK36, 8-methoxy-2-phenyl-4H-pyrido[1,2-a]pyrimidin-4-one] | dose-dependently enhances | – | – | – | – | – | – | – | – | –
CC(C)Oc1ccn2c(=O)cc(-c3ccccc3)nc2c1 [DK41, 8-isopropoxy-2-phenyl-4H-pyrido[1,2-a]pyrimidin-4-one] | dose-dependently enhances | – | – | – | – | – | – | – | – | –
CCc1ccn2c(=O)cc(-c3ccccc3)nc2c1 [DK45, 8-ethyl-2-phenyl-4H-pyrido[1,2-a]pyrimidin-4-one] | dose-dependently enhances | enhancement | enhancement | reduced | reduced | reduced | reduced | reduced | reduced | reduced
